# System: human peripheral-blood mononuclear cells
# Assay: Interferon γ production by peripheral-blood mononuclear cells with interleukin 2 (ELISA)
# Assay type: cell-based
# Settings: lipid antigen added with interleukin 2, supernatant ELISA
# Experimental: It was found out that the production amount of interferon γ increased by 2 folds or more when mycoplasma-mimic particles (GGPL-I, GGPL-III) were added as compared with administration of interleukin 2 alone using human peripheral-blood mononuclear cells. The mononuclear cells were separated from the peripheral blood of a healthy individual, and a sample in which interleukin 2 and the lipid antigen were added to the mononuclear cells, and a sample of the mononuclear cells without adding the lipid antigen were cultured, and supernatants thereof were recovered, and the amounts of interferon γ in the supernatants were measured with an enzyme antibody immune method (ELISA method).
# Mononuclear cells were separated from the peripheral blood of a healthy individual. A sample in which interleukin 2 and mycoplasma-mimic particles (GGPL-I, or GGPL-III) were added to the mononuclear cells, and a sample of the mononuclear cells with no addition of the mycoplasma-mimic particles were cultured, and supernatants thereof were recovered, and the amounts of interferon γ in the supernatant were measured with an enzyme antibody immune method (ELISA method).
# Mononuclear cells were separated from the peripheral blood of a healthy individual. […]
compound,measurement,value
CCCCCCCCCCCCCCCC(=O)OC[C@H](CO[C@H]1O[C@H](COP(=O)(O)OCC(N)COP(=O)(O)OCC[N+](C)(C)C)[C@@H](O)[C@H](O)[C@H]1O)OC(=O)CCCCCCCCCCCCCCC (stereo partly shown) [GGPL-III],production amount of interferon γ in comparison with no addition of the lipid antigen,remarkably increased
